Assay results: the NIST ThermoML archive (doi:10.1016/j.jct.2019.04.010)
Numbers after ± are expanded uncertainties.

Experiment: xn = mol fraction of the nth substance listed
Conditions: 100 kPa, Liquid; for viscosity: Concentric cylinders viscometry; for mass density: Vibrating tube method

CCCCn1cc[n+](C)c1.O=[N+]([O-])[O-] [1-butyl-3-methylimidazolium nitrate] + CCCC(C)O
Conditions | mass density, 293.15 K [kg/m3] | mass density, 298.15 K [kg/m3] | mass density, 303.15 K [kg/m3] | viscosity, 293.15 K [mPa·s] | viscosity, 298.15 K [mPa·s] | viscosity, 303.15 K [mPa·s] | viscosity, 308.15 K [mPa·s]
x1 = 0.0812 | 854 ± 1.5 | 850.4 ± 1.5 | 846.5 ± 1.5 | 4.47 ± 0.89 | 3.69 ± 0.74 | 3.16 ± 0.63 | 2.74 ± 0.55
x1 = 0.1604 | 893.6 ± 1.4 | 890.1 ± 1.4 | 886.5 ± 1.4 | 5.28 ± 1.1 | 4.35 ± 0.87 | 3.72 ± 0.74 | 3.25 ± 0.65
x1 = 0.2403 | 929.8 ± 1.3 | 926.4 ± 1.3 | 922.9 ± 1.3 | 6.43 ± 1.3 | 5.39 ± 1.1 | 4.65 ± 0.93 | 4.08 ± 0.82
x1 = 0.3499 | 974.3 ± 1.3 | 971.1 ± 1.3 | 967.8 ± 1.3 | 9.03 ± 1.8 | 7.59 ± 1.5 | 6.64 ± 1.3 | 5.73 ± 1.1
x1 = 0.4399 | 1007.1 ± 1.3 | 1004 ± 1.3 | 1000.7 ± 1.3 | 12.56 ± 2.5 | 10.53 ± 2.1 | 9.14 ± 1.8 | 7.89 ± 1.6
x1 = 0.5604 | 1046.7 ± 1.3 | 1043.5 ± 1.3 | 1040.5 ± 1.3 | 20.29 ± 4.1 | 17.14 ± 3.4 | 14.61 ± 2.9 | 12.37 ± 2.5
x1 = 0.6505 | 1073.3 ± 1.3 | 1070.3 ± 1.3 | 1067.4 ± 1.3 | 30.81 ± 6.2 | 25.47 ± 5.1 | 21.35 ± 4.3 | 17.74 ± 3.6
x1 = 0.7405 | 1097.8 ± 1.3 | 1094.8 ± 1.3 | 1092.1 ± 1.3 | 47.6 ± 9.5 | 37.96 ± 7.6 | 31.14 ± 6.2 | 25.35 ± 5.1
x1 = 0.8501 | 1124.9 ± 1.4 | 1122 ± 1.4 | 1119.3 ± 1.4 | 83.3 ± 17 | 63.4 ± 13 | 50.3 ± 10 | 40 ± 8
x1 = 0.9396 | 1145.3 ± 1.5 | 1142.3 ± 1.5 | 1139.5 ± 1.5 | 143.6 ± 29 | 105.6 ± 21 | 81.8 ± 16 | 63.4 ± 13
x1 = 1 | 1158.3 ± 1.5 | 1155.2 ± 1.5 | 1152.3 ± 1.5 | 223.54 ± 45 | 168.97 ± 34 | 125.36 ± 25 | 96.74 ± 19
